Results from ChEMBL document CHEMBL2092589, “Liver-stage malaria parasites vulnerable to diverse chemical scaffolds” (Proc Natl Acad Sci U S A, 2012).
Structures can show the parent of a compound that is named as a salt.

Tests used:
[1] = (§1) HARVARD: Cytotoxicity in HepG2 cell line; details: human
Plasmodium berghei = experiment: HARVARD: Inhibition of liver stage Plasmodium berghei infection in HepG2 cells; assay type: functional, organism-based, ANKA
Plasmodium falciparum [2] = experiment: HARVARD: Inhibition of blood stage Plasmodium falciparum Dd2 infection; assay type: functional, organism-based
Plasmodium falciparum [3] = experiment: HARVARD: Inhibition of blood stage Plasmodium falciparum 3D7 infection; assay type: functional, organism-based
HepG2 = experiment: as §1; details: human, HepG2 cells
[4] = Plasmodium berghei, ANKA, HepG2

Compound	IC50 ([1]; HepG2 cells)	IC50 (Plasmodium berghei; [4])	IC50 (Plasmodium falciparum [2]; Plasmodium falciparum, Dd2)	other results
CCCCCCCCCc1ccc(OCCOCCOCCOCCOCCOCCOCCOCCOCCO)cc1 [NONOXYNOL 9]	61000 nM	2310 nM	> 5000 nM	
CC[C@@H](C(=O)[C@@H](C)[C@@H](O)[C@H](C)CCc1ccc(C)c(O)c1C(=O)O)[C@H]1O[C@](CC)([C@H]2CC[C@](O)(CC)[C@H](C)O2)C[C@@H]1C [LASALOCID A SODIUM]	> 100000 nM	11 nM		
COc1ccc(CCN2CCC(Nc3nc4ccccc4n3Cc3ccc(F)cc3)CC2)cc1 [ASTEMIZOLE]	12000 nM			
COc1ccc2[nH]c([S+]([O-])Cc3ncc(C)c(OC)c3C)nc2n1 (configuration not stated) [TENATOPRAZOLE]	> 10000 nM	224 nM	> 5000 nM	IC50 (Plasmodium falciparum [3]; Plasmodium falciparum, 3D7): > 5000 nM
CCCC(C(=O)OCCN(CC)CC)(c1ccccc1)c1ccccc1 [PROADIFEN HYDROCHLORIDE]	57000 nM	2780 nM	722 nM	
CCCCCC[C@H]1C(=O)O[C@H](C)[C@H](NC(=O)c2cccc(NC=O)c2O)C(=O)O[C@@H](C)[C@@H]1OC(=O)CC(C)C [ANTIMYCIN A]	> 100000 nM	2.3 nM		
CC[C@@H](C(=O)[C@@H](C)[C@@H](O)[C@H](C)[C@@H]1O[C@@H]([C@@H](CC)C(=O)O)CC[C@@H]1C)[C@H]1O[C@]2(C=C[C@@H](O)[C@]3(CC[C@@](C)([C@H]4CC[C@](O)(CC)[C@H](C)O4)O3)O2)[C@H](C)C[C@@H]1C [SALINOMYCIN SODIUM]	58000 nM	2 nM		
AURANOFIN				IC50 (HepG2): 5600 nM; IC50 (Plasmodium berghei; hepg2): 108 nM; IC50 (Plasmodium falciparum [3]): 343 nM; IC50 (Plasmodium falciparum [2]): 316 nM
CCCOc1ccccc1-c1nc2nn[nH]c2c(=O)[nH]1 [ZAPRINAST]	> 10000 nM	7790 nM	19300 nM	IC50 (Plasmodium falciparum [3]; Plasmodium falciparum, 3D7): > 50000 nM
CC[C@@H]1C=CC=CC[C@H](C)[C@@H](O)[C@@H](C)C(=O)[C@H](C)[C@@H](O)[C@H](C)C(=O)[C@H](C)[C@@H](O)[C@H](C)C=CC(=O)O[C@H]2[C@@H](C)[C@@H](CC1)O[C@@]1(CC[C@@H](C)[C@@H](C[C@H](C)O)O1)[C@@H]2C [OLIGOMYCIN C]	15000 nM	0.5 nM	111 nM	
Nc1nc(Nc2ccc(S(N)(=O)=O)cc2)nn1C(=S)Nc1c(F)cccc1F	> 50000 nM	472 nM	258 nM	
CC[C@@]1([C@@H]2O[C@@H]([C@H]3O[C@@](O)(CO)[C@H](C)C[C@@H]3C)C[C@@H]2C)CC[C@H]([C@]2(C)CC[C@]3(C[C@H](O)[C@@H](C)[C@@H]([C@@H](C)[C@@H](OC)[C@H](C)C(=O)O)O3)O2)O1 [MONENSIN SODIUM]	> 100000 nM			
O=C(c1ccc(F)cc1)C1CCN(CCn2c(=O)[nH]c3ccccc3c2=O)CC1 [KETANSERIN TARTRATE]	> 100000 nM	1340 nM	> 5000 nM	
CCCc1nc2c(C)cc(-c3nc4ccccc4n3C)cc2n1Cc1ccc(-c2ccccc2C(=O)O)cc1	> 10000 nM	25 nM	> 5000 nM	IC50 (Plasmodium falciparum [3]; Plasmodium falciparum, 3D7): > 5000 nM
C[C@@H]1C[C@@H]([C@H](O)CC2CC(=O)NC(=O)C2)C(=O)[C@@H](C)C1 [CYCLOHEXIMIDE]	> 100000 nM	47 nM		
C/C=C/C[C@@H](C)[C@@H](O)[C@H]1C(=O)N[C@@H](CC)C(=O)N(C)CC(=O)N(C)[C@@H](CC(C)C)C(=O)N[C@@H](C(C)C)C(=O)N(C)[C@@H](CC(C)C)C(=O)N[C@@H](C)C(=O)N[C@H](C)C(=O)N(C)[C@@H](CC(C)C)C(=O)N(C)[C@@H](CC(C)C)C(=O)N(C)[C@@H](C(C)C)C(=O)N1C [CYCLOSPORINE]		1.65 nM		IC50 (Plasmodium falciparum [3]; Plasmodium falciparum, 3D7): 138 nM
COc1c(C)c2c(c(O)c1C/C=C(\C)CCC(=O)O)C(=O)OC2 [MYCOPHENOLIC ACID]	> 100000 nM	1000 nM	> 5000 nM	
CCCCCCCCCCOc1cc2c(O)c(C(=O)OCC)cnc2cc1OCC [DECOQUINATE]	> 100000 nM	5.4 nM		
CCc1nc(N)nc(N)c1-c1ccc(Cl)cc1 [PYRIMETHAMINE]	> 10000 nM	4.7 nM		

Compound	IC50 ([1]; HepG2 cells)	IC50 (Plasmodium berghei; [4])	IC50 (Plasmodium falciparum [2]; Plasmodium falciparum, Dd2)	other results
CC(C)=CC[C@@H](O)C1=CC(=O)c2c(O)ccc(O)c2C1=O [SHIKONIN]	28100 nM	1370 nM	> 5000 nM	IC50 (Plasmodium falciparum [3]; Plasmodium falciparum, 3D7): > 5000 nM
CC(=O)[C@]1(O)Cc2c(O)c3c(c(O)c2[C@@H](O[C@H]2C[C@H](N)[C@H](O)[C@H](C)O2)C1)C(=O)c1ccccc1C3=O [IDARUBICIN]	12300 nM	6620 nM	> 5000 nM	IC50 (Plasmodium falciparum [3]; Plasmodium falciparum, 3D7): > 5000 nM
COc1cccc2c1C(=O)c1c(O)c3c(c(O)c1C2=O)C[C@@](O)(C(=O)CO)C[C@@H]3O[C@H]1C[C@H](N)[C@H](O)[C@H](C)O1 [DOXORUBICIN]	11100 nM	886 nM	58 nM	
COc1cccc2c1C(=O)c1c(O)c3c(c(O)c1C2=O)C[C@@](O)(C(C)=O)C[C@@H]3O[C@H]1C[C@H](N)[C@H](O)[C@H](C)O1 [DAUNORUBICIN]	9120 nM	2990 nM	155 nM	IC50 (Plasmodium falciparum [3]; Plasmodium falciparum, 3D7): 340 nM
O=C1C(O)=C([C@H]2CC[C@H](c3ccc(Cl)cc3)CC2)C(=O)c2ccccc21 [ATOVAQUONE]	> 10000 nM	0.3 nM		
COc1ccc2nc([S@@+]([O-])Cc3ncc(C)c(OC)c3C)[nH]c2c1 [ESOMEPRAZOLE POTASSIUM]	> 10000 nM	291 nM	> 50000 nM	IC50 (Plasmodium falciparum [3]; Plasmodium falciparum, 3D7): > 50000 nM
Nc1ccc2ncnc(NCCc3ccc(Oc4ccccc4)cc3)c2c1	59000 nM	12 nM	1170 nM	
Cc1cc(C2CCCCC2)n(O)c(=O)c1 [CICLOPIROX OLAMINE]	> 100000 nM	1050 nM		
CO[C@H](C(=O)[C@@H](O)[C@@H](C)O)[C@@H]1Cc2cc3cc(O[C@H]4C[C@@H](O[C@H]5C[C@@H](O)[C@H](O)[C@@H](C)O5)[C@H](O)[C@@H](C)O4)c(C)c(O)c3c(O)c2C(=O)[C@H]1O[C@H]1C[C@@H](O[C@H]2C[C@@H](O[C@H]3C[C@](C)(O)[C@H](O)[C@@H](C)O3)[C@@H](O)[C@@H](C)O2)[C@H](O)[C@@H](C)O1 [PLICAMYCIN]	> 10000 nM			
COc1cc(NC(C)CCCN)c2ncccc2c1 (configuration not stated) [PRIMAQUINE PHOSPHATE]	> 100000 nM	7400 nM	794 nM	
COc1ccc2[nH]c([S+]([O-])Cc3ncc(C)c(OC)c3C)nc2c1 (configuration not stated) [OMEPRAZOLE]	> 10000 nM	680 nM	> 50000 nM	IC50 (Plasmodium falciparum [3]; Plasmodium falciparum, 3D7): > 50000 nM
CC[C@H]1CN2CCc3cc(OC)c(OC)cc3[C@@H]2C[C@@H]1C[C@H]1NCCc2cc(OC)c(OC)cc21 [EMETINE HYDROCHLORIDE]	10000 nM	80 nM	18 nM	
Cc1cc(N)c2ccccc2[n+]1CCCCCCCCCC[n+]1c(C)cc(N)c2ccccc21 [DEQUALINIUM CHLORIDE]	> 100000 nM	1710 nM	134 nM	
CC[C@@]1([C@H]2O[C@H]([C@H]3O[C@@](O)(CO)[C@H](C)C[C@@H]3C)C[C@H]2C)CC[C@H]([C@@]2(C)CC[C@]3(C[C@H](O)[C@@H](C)[C@@H]([C@H](C)[C@H](OC)[C@@H](C)C(=O)O)O3)O2)O1 [MONENSIN SODIUM]		0.6 nM		
CO[C@H](C(=O)[C@@H](O)[C@@H](C)O)[C@@H]1Cc2cc3cc(O[C@H]4C[C@@H](O[C@@H]5C[C@@H](O)[C@H](O)[C@@H](C)O5)[C@H](O)[C@@H](C)O4)c(C)c(O)c3c(O)c2C(=O)[C@H]1O[C@H]1C[C@@H](O[C@@H]2C[C@@H](O)[C@@H](O[C@@H]3C[C@](C)(O)[C@H](O)[C@@H](C)O3)[C@@H](C)O2)[C@H](O)[C@@H](C)O1 [PLICAMYCIN]		833 nM	12.5 nM	IC50 (Plasmodium falciparum [3]; Plasmodium falciparum, 3D7): 15 nM
CC(=O)O[C@@H]1C[C@H]2C(C)(C)C(=O)C=C[C@]2(C)[C@H]2CC[C@@]3(C)[C@H](c4ccoc4)OC(=O)[C@H]4O[C@]43[C@@]21C [GEDUNIN]	> 100000 nM	760 nM		
CN1CCC[C@@H]1CCO[C@](C)(c1ccccc1)c1ccc(Cl)cc1 [CLEMASTINE FUMARATE]		951 nM	456 nM	IC50 ([1]; hepg2): > 50000 nM; IC50 (Plasmodium falciparum [3]; Plasmodium falciparum, 3D7): 658 nM
CCN(CC)CCOc1ccc(C(=C(Cl)c2ccccc2)c2ccccc2)cc1 [CLOMIPHENE]	11000 nM	219 nM		
